This note sets out measurements from the NIST ThermoML archive (doi:10.1016/j.fluid.2008.02.008).

± gives the expanded uncertainty stated by the source.

For orientation: mass density means mass per unit of volume. A word on the speed of sound: it is the propagation velocity of pressure waves in the medium. A word on the refractive index: it is a measure of how strongly the sample bends light.

For series [1] the following is noted: 298.15 K, 101.33 kPa, Liquid; for mass density: Pycnometric method; for speed of sound: Sing-around technique in a fixed-path interferometer.
The nature of series [2]: refractive index (Na D-line) (dimensionless). The settings on record: 298.15 K; 101.33 kPa; Liquid; Standard Abbe refractometry.

Consider `CC(C)CC(C)(C)C` [2,2,4-trimethylpentane], for which, in series [1], the mass density is reported as 687.817 ± 0.62 kg/m3 and the speed of sound is given as 1082.6 ± 1 m/s. For the same compound, the refractive index in series [2] was found to be 1.38917 ± 0.00073.

With `CCC(C)(C)C` [2,2-dimethylbutane], in series [1], the mass density is reported as 644.43 ± 0.61 kg/m3 and the speed of sound came to 999.69 ± 1.3 m/s. In addition, the refractive index in series [2] was 1.36608 ± 0.00075.

Regarding `CC(C)C(C)C` [2,3-dimethylbutane], in series [1], the mass density stood at 658.562 ± 1.3 kg/m3 and the speed of sound is given as 1047.1 ± 3.1 m/s. Further, the refractive index in series [2] was determined as 1.37275 ± 0.00094.

With `CCCC(C)C` [2-methylpentane], in series [1], the mass density came to 648.614 ± 0.62 kg/m3 and the speed of sound was 1082.6 ± 1.3 m/s. For the same compound, the refractive index in series [2] is on record as 1.36893 ± 0.00075.

With `CCC(C)CC` [3-methylpentane], in series [1], the mass density is 659.806 ± 0.63 kg/m3 and the speed of sound worked out at 1072.1 ± 1.3 m/s. The refractive index in series [2] amounted to 1.37399 ± 0.00075.

Turning to `O=C1CCCN1C1CCCCC1` [N-cyclohexylpyrrolidinone], in series [1], the mass density is reported as 1025.56 ± 1.7 kg/m3 and the speed of sound is reported as 1555.7 ± 2.3 m/s. For the same compound, in series [2], the refractive index worked out at 1.4975 ± 0.00082.

Regarding `CN1CCCC1=O` [N-methylpyrrolidone], in series [1], the mass density was determined as 1027.88 ± 1.1 kg/m3 and the speed of sound is 1545 ± 1.5 m/s. Further, the refractive index in series [2] is recorded as 1.46876 ± 0.00075.

`C1CCCCC1` [cyclohexane]: in series [1], the mass density came to 773.948 ± 0.69 kg/m3 and the speed of sound came out at 1254.9 ± 0.97 m/s. Besides, the refractive index in series [2] is given as 1.42378 ± 0.00072.

With `C1CCCCCCC1` [cyclooctane], in series [1], the mass density was 830.967 ± 0.82 kg/m3 and the speed of sound was found to be 1387.8 ± 1.4 m/s. In addition, the refractive index in series [2] is 1.45624 ± 0.00075.

In the case of `CCCCCCCCCC` [decane], in series [1], the mass density turned out to be 726.176 ± 0.7 kg/m3 and the speed of sound came to 1232.5 ± 1.4 m/s. Also, the refractive index in series [2] turned out to be 1.4099 ± 0.00075.

For `CCCCCC` [hexane], in series [1], the mass density was determined as 654.961 ± 0.62 kg/m3 and the speed of sound came out at 1077.6 ± 1.3 m/s. For the same compound, the refractive index in series [2] turned out to be 1.37237 ± 0.00075.

With `CCCCCCCC` [octane], in series [1], the mass density is given as 698.638 ± 0.63 kg/m3 and the speed of sound worked out at 1170.4 ± 1.1 m/s. Besides, the refractive index in series [2] stood at 1.39538 ± 0.00073.

Turning to `O` [water], the refractive index in series [2] is 1.3325 ± 0.00075.
